Results on 29 compounds are retold here after patent US9415055B2, “Cyclic amines” (H. Lundbeck A/S, priority 2012, dated 2016).

Chain of P2X7 receptor (Q99572 whole entry): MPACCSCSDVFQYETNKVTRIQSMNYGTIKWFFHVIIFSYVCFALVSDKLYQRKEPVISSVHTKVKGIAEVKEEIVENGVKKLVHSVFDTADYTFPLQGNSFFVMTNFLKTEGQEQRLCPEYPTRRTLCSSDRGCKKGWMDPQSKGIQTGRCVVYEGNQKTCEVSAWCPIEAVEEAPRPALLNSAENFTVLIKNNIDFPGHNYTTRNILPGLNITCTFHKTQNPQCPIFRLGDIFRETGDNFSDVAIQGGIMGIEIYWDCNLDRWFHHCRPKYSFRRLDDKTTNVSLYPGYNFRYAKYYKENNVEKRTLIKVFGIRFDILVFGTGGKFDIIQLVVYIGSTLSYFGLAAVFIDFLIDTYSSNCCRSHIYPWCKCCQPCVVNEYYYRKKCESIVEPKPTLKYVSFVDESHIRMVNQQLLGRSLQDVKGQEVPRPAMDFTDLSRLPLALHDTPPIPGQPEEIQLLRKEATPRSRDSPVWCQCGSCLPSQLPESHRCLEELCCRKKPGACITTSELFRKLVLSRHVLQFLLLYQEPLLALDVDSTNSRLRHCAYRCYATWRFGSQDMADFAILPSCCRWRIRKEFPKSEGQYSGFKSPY

The target of the experiment is P2X7 receptor (Homo sapiens (Human), UniProt Q99572). Kind of experiment: P2X7 FLIPR assay: antagonism of BzATP response in 293 HEK cells stably expressing P2X7 receptor. Type of experiment: cell-based. The note with it: FLIPR fluorescence (Fluo-4), agonist BzATP, 293 HEK cells stably transfected with P2X7 receptor. Put shortly:
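Antagonist IC50 derived from FLIPR Tetra Fluo-4 calcium signal evoked by BzATP. Compound pre-incubation was 30 min at room temperature on P2X7-expressing HEK293 cells, seeded 24 h before in low-serum medium and dye-loaded 30 min at 37 °C then 30 min at RT.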
`Cc1ncc(C(CNC(=O)c2ccccc2Cl)N2CCCCC2)cn1` (single isomer, unassigned; (-)) [(−)2-chloro-N-[2-(2-methylpyrimidin-5-yl)-2-(1-piperidyl)eth] [(−)2-chloro-N-(2-(2-methylpyrimidin-5-yl)-2-(piperidin-1-yl)ethyl)benzamide] gave a concentration for half-maximal inhibition (IC50) of 0.12 µM. For the compound `Cc1ncc(C(CNC(=O)c2cccc(OC(F)(F)F)c2Cl)N2CCC(F)(F)CC2)cn1` (single isomer, unassigned; (-)) [(−)2-chloro-N-[2-(4,4-difluoro-1-piperidyl)-2-(2-methylpyrim] [(−)2-chloro-N-(2-(4,4-difluoropiperidin-1-yl)-2-(2-methylpyrimidin-5-yl)ethyl)-3-(trifluoromethoxy)benzamide], the concentration for half-maximal inhibition (IC50) is 0.04 µM. With `Cc1ncc(C(CNC(=O)c2c(F)cccc2Cl)N2CCCOCC2)cn1` (centres unmarked) [2-chloro-6-fluoro-N-(2-(2-methylpyrimidin-5-yl)-2-(1,4-oxazepan-4-yl)ethyl)benzamide], the IC50 is 0.82 µM.

Compound `O=C(NCC(c1ccc(C(F)(F)F)nc1)N1CCOCC1)c1cccc(Cl)c1Cl` (centres unmarked) [2,3-dichloro-N-[2-morpholino-2-[6-(trifluoromethyl)-3-pyridy] [2,3-Dichloro-N-[2-morpholino-2-[6-(trifluoromethyl)-3-pyridyl]ethyl]benzamide] showed an IC50 of 0.0046 µM. As to `Cc1ncc(C(CNC(=O)c2c(Cl)cccc2Cl)N2CCCOCC2)cn1` (centres unmarked) [2,6-dichloro-N-(2-(2-methylpyrimidin-5-yl)-2-(1,4-oxazepan-4-yl)ethyl)benzamide], the IC50 worked out at 0.74 µM. Compound `Cc1ncc(C(CNC(=O)c2cccc(OC(F)F)c2Cl)N2CCC(F)(F)CC2)cn1` (single isomer, unassigned; (+)) [(+)2-chloro-3-(difluoromethoxy)-N-[2-(4,4-difluoro-1-piperid] [(+)2-chloro-3-(difluoromethoxy)-N-(2-(4,4-difluoropiperidin-1-yl)-2-(2-methylpyrimidin-5-yl)ethyl)benzamide] showed an IC50 of 0.007 µM. Compound `Cc1ncc(C(CNC(=O)c2ccccc2Cl)N2CCC(F)CC2)cn1` (single isomer, unassigned; (-)) [(−)2-chloro-N-[2-(4-fluoro-1-piperidyl)-2-(2-methylpyrimidin] [(−)2-chloro-N-(2-(4-fluoropiperidin-1-yl)-2-(2-methylpyrimidin-5-yl)ethyl)benzamide] gave an IC50 of 0.045 µM. The same measure for `Cc1ccccc1C(=O)NCC(c1ccc(F)cc1)N1CCOCC1` (centres unmarked) [N-[2-(4-Fluoro-phenyl)-2-morpholin-4-yl-ethyl]-2-methyl-benzamide]: 0.11 µM; for `Cc1ncc(C(CNC(=O)c2cccc(Cl)c2Cl)N2CCC(=O)CC2)cn1` (centres unmarked) [2,3-Dichloro-N-(2-(2-methylpyrimidin-5-yl)-2-(4-oxopiperidin-1-yl)ethyl)benzamide]: 0.019 µM; for `COc1ccc(C(CNC(=O)c2cccc(C)c2C)N2CCCCC2)cc1` (centres unmarked) [N-[2-(4-Methoxy-phenyl)-2-piperidin-1-yl-ethyl]-2,3-dimethyl-benzamide]: 0.42 µM. Consider `CS(=O)(=O)c1ccc(Cl)c(C(=O)NCC(c2ccc(C(F)(F)F)nc2)N2CCOCC2)c1` (single isomer, unassigned; (-)) [(−)2-chloro-5-methylsulfonyl-N-[2-morpholino-2-[6-(trifluoro] [(−)2-chloro-5-(methylsulfonyl)-N-(2-morpholino-2-(6-(trifluoromethyl)pyridin-3-yl)ethyl)benzamide], for which the IC50 amounted to 0.051 µM.

`O=C(NCC(c1cnc(C2CC2)nc1)N1CCC(F)(F)CC1)c1ccccc1Cl` (single isomer, unassigned; (+)) [(+)2-chloro-N-[2-(2-cyclopropylpyrimidin-5-yl)-2-(4,4-difluo] [(+)2-chloro-N-(2-(2-cyclopropylpyrimidin-5-yl)-2-(4,4-difluoropiperidin-1-yl)ethyl)benzamide] had an IC50 of 0.003 µM. On to `CC(C)S(=O)(=O)c1ccc(Cl)c(C(=O)NCC(c2ccc(Cl)cc2)N2CCOCC2)c1` (single isomer, unassigned; (-)) [(−)2-chloro-N-(2-(4-chlorophenyl)-2-morpholinoethyl)-5-(isopropylsulfonyl)benzamide], for which the IC50 worked out at 0.047 µM. `Cc1ncc(C(CNC(=O)c2cccc(Cl)c2Cl)N2CC(F)(F)C(F)(F)C2)cn1` (centres unmarked) [2,3-dichloro-N-(2-(2-methylpyrimidin-5-yl)-2-(3,3,4,4-tetrafluoropyrrolidin-1-yl)ethyl)benzamide]: the IC50 turned out to be 0.0026 µM. Compound `COc1ccc(C(CNC(=O)c2cccc(C)c2C)N2CCOCC2)cc1` (centres unmarked) [N-[2-(4-Methoxy-phenyl)-2-morpholin-4-yl-ethyl]-2,3-dimethyl-benzamide] registered an IC50 of 0.047 µM. The same measure for `O=C(NCC(c1cnc(C(F)(F)F)nc1)N1CCC(F)(F)CC1)c1cccc(F)c1Cl` (single isomer, unassigned; (-)) [(−)2-chloro-N-[2-(4,4-difluoro-1-piperidyl)-2-[2-(trifluorom] [(−)2-chloro-N-(2-(4,4-difluoropiperidin-1-yl)-2-(2-(trifluoromethyl)pyrimidin-5-yl)ethyl)-3-fluorobenzamide]: 0.0042 µM; for `O=C(NCC(c1cnc(C(F)F)nc1)N1CCOCC1)c1ccccc1Cl` (single isomer, unassigned; (+)) [(+)2-chloro-N-[2-[2-(difluoromethyl)pyrimidin-5-yl]-2-morpho] [(+)2-chloro-N-(2-(2-(difluoromethyl)pyrimidin-5-yl)-2-morpholinoethyl)benzamide]: 0.06 µM; for `O=C(NCC(c1cnc(C(F)(F)F)nc1)N1CCC(F)CC1)c1c(Cl)cccc1Cl` (single isomer, unassigned; (-)) [(−)2,6-dichloro-N-[2-(4-fluoro-1-piperidyl)-2-[2-(trifluorom] [(−)2,6-dichloro-N-(2-(4-fluoropiperidin-1-yl)-2-(2-(trifluoromethyl)pyrimidin-5-yl)ethyl)benzamide]: 0.015 µM. The same measure for `COc1ccccc1C(=O)NCC(c1ccc(C(F)(F)F)nc1)N1CCOCC1` (single isomer, unassigned; (-)) [(−)2-methoxy-N-[2-morpholino-2-[6-(trifluoromethyl)-3-pyridy] [(−)2-Methoxy-N-[2-morpholin-4-yl-2-(6-trifluoromethyl-pyridin-3-yl)-ethyl]-benzamide]: 0.021 µM; for `Cc1ncc(C(CNC(=O)c2cccc(Cl)c2Cl)N2CCOCC2)cn1` (single isomer, unassigned; (-)) [(−)2,3-dichloro-N-[2-(2-methylpyrimidin-5-yl)-2-morpholino-e] [(−)2,3-Dichloro-N-[2-(2-methylpyrimidin-5-yl)-2-morpholino-ethyl]benzamide]: 0.027 µM; for `Cc1ncc(C(CNC(=O)c2ccccc2Cl)N2CCC(F)(F)CC2)cn1` (single isomer, unassigned; (-)) [(−)2-chloro-N-[2-(4,4-difluoro-1-piperidyl)-2-(2-methylpyrim] [(−)2-chloro-N-[2-(4,4-difluoro-1-piperidyl)-2-(2-methylpyrimidin-5-yl)ethyl]benzamide]: 0.024 µM. In turn, `CCc1ncc(C(CNC(=O)c2ccccc2Cl)N2CCC(F)(F)CC2)cn1` (single isomer, unassigned; (-)) [(−)2-chloro-N-[2-(4,4-difluoro-1-piperidyl)-2-(2-ethylpyrimi] [(−)2-chloro-N-(2-(4,4-difluoropiperidin-1-yl)-2-(2-ethylpyrimidin-5-yl)ethyl)benzamide] registered an IC50 of 0.017 µM. As for `CS(=O)(=O)c1ccc(Cl)c(C(=O)NCC(c2ccc(Cl)cc2)N2CCOCC2)c1` (single isomer, unassigned; (+)) [(+)2-chloro-N-[2-(4-chlorophenyl)-2-morpholino-ethyl]-5-meth] [(+)2-chloro-N-(2-(4-chlorophenyl)-2-morpholinoethyl)-5-(methylsulfonyl)benzamide], the IC50 was 0.18 µM. The compound `O=C(NCC(c1cnc(C2CC2)nc1)N1CCC(F)(F)CC1)c1cccc(Cl)c1Cl` (single isomer, unassigned; (+)) [(+)2,3-dichloro-N-[2-(2-cyclopropylpyrimidin-5-yl)-2-(4,4-di] [(+)2,3-dichloro-N-(2-(2-cyclopropylpyrimidin-5-yl)-2-(4,4-difluoropiperidin-1-yl)ethyl)benzamide] returned an IC50 of 0.0043 µM. The compound `COc1cccc(C(=O)NCC(c2ccc(C(F)F)nc2)N2CCC(F)(F)CC2)c1Cl` (single isomer, unassigned; (+)) [(+)2-chloro-N-[2-[6-(difluoromethyl)-3-pyridyl]-2-(4,4-diflu] [(+)2-chloro-3-methoxy-N-(2-(2-(difluoromethyl)pyridin-5-yl)-2-(4,4-difluoropiperidin-1-yl)ethyl)benzamide] yielded an IC50 of 0.0023 µM. `Cc1ccc(C(CNC(=O)c2c(F)cccc2Cl)N2CCC(F)(F)CC2)cn1` (single isomer, unassigned; (-)) [(−)2-chloro-N-[2-(4,4-difluoro-1-piperidyl)-2-(6-methyl-3-py] [(−)2-chloro-N-(2-(4,4-difluoropiperidin-1-yl)-2-(6-methylpyridin-3-yl)ethyl)-6-fluorobenzamide] had an IC50 of 0.022 µM. The same measure for `O=C(NCC(c1cnc(C(F)(F)F)nc1)N1CCC(F)(F)CC1)c1c(Cl)cc(F)cc1Cl` (single isomer, unassigned; (-)) [(−)2,6-dichloro-N-[2-(4,4-difluoro-1-piperidyl)-2-[2-(triflu] [(−)2,6-dichloro-4-fluoro-N-(2-(4,4-difluoropiperidin-1-yl)-2-(2-(trifluoromethyl)pyrimidin-5-yl)ethyl)benzamide]: 0.015 µM; for `Cc1ncc(C(CNC(=O)c2c(F)cccc2F)N2CCOCC2)cn1` (centres unmarked) [2,6-difluoro-N-(2-(2-methylpyrimidin-5-yl)-2-morpholinoethyl)benzamide]: 1.1 µM. Turning to `Cc1ncc(C(CNC(=O)c2ccccc2Cl)N2CCC(F)CC2)cn1` (single isomer, unassigned; (+)) [(+)2-chloro-N-[2-(4-fluoro-1-piperidyl)-2-(2-methylpyrimidin] [(+)2-chloro-N-(2-(4-fluoropiperidin-1-yl)-2-(2-methylpyrimidin-5-yl)ethyl)benzamide], the IC50 turned out to be 0.05 µM.

As a reminder, the IC50 is the concentration at which inhibition is half-maximal. A lower IC50 goes with inhibition by little substance.
